The experiment has as its target NACHT, LRR and PYD domains-containing protein 3 (Homo sapiens, UniProt Q96P20). The experiment can be described thus: Inhibitory Activity of NLRP3. On the procedure:
ELISA plate, and incubated at 4° C. overnight. Discard the liquid in the ELISA plate and wash it 4 times with eluent. Add 300 μL/well reagent diluent and incubate the ELISA plate at room temperature for 1.5 hours. Wash the plate with eluent for four times. Then 100 μL/well samples were added to ELISA plate coated with IL1β and incubated at room temperature for 2 h. Wash the plate with eluent for four times. Each well was added with 100 μL detection antibody and incubated at 37° C. for 2 h. Wash the plate with eluent for four times. Add 100 μL of HRP labeled secondary antibody to each well. Incubate at 37° C. for 1 hour. Wash the plate with eluent for four times. Add 100 μL of A+B substrate per well. Incubate at 37° C. for 30 minutes. Add 100 μL STOP solution per well. Gently shake the plate for a few seconds. Read the absorption value at 450 nm on the EnVision multifunction reader and calculate the Inhibitory rate according to the following formula: Inhibition %=(Ave_H-Sample)/(Ave_H-Ave_L). Among them, Ave_H represents the average value of DMSO well, Sample represents the average value of compound well, and Ave_L represents the average value of 10 μM positive control well. The log value of concentration was taken as the X-axis and the percentage inhibitory rate as the Y-axis. […]

Where only a bound is given, the exact number is not on record here.

Chain of NACHT, LRR and PYD domains-containing protein 3 (Q96P20 whole entry, the tested form may be a part): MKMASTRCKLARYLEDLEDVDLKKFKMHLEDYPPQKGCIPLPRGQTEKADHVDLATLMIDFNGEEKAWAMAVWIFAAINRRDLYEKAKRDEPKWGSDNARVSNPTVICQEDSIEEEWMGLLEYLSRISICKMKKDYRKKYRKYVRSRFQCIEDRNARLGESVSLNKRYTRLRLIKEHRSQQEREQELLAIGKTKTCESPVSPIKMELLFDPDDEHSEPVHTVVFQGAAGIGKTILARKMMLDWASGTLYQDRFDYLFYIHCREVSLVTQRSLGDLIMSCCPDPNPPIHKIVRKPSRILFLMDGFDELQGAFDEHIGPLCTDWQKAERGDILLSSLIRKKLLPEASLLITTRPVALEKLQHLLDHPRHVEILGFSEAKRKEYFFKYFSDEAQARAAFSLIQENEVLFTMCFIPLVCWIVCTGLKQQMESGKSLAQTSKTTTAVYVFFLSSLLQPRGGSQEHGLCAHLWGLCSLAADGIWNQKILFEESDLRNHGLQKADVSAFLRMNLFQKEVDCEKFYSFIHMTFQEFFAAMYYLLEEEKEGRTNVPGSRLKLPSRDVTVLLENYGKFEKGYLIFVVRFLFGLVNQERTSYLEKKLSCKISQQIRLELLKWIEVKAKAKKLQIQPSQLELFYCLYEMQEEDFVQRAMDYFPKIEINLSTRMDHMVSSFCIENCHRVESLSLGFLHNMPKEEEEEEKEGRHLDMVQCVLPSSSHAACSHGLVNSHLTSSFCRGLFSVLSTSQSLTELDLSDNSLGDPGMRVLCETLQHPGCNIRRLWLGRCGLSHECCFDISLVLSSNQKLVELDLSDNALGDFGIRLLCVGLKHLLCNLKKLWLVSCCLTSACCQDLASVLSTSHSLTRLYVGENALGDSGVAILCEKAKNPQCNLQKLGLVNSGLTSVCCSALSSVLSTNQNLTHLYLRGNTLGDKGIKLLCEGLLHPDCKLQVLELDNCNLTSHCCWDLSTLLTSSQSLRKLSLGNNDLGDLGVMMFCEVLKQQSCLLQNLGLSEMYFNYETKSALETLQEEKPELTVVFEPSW

As for `COc1cc(-c2c(C)cc3c(c2NC(=O)NS(=O)(=O)c2ccn(C4CC(=C(F)F)C4)n2)CCC3)ccn1` (stereo unspecified) [US20240336562, Compound 22], the IC50 is below 25 nM.

For orientation: IC50 means the concentration that gives 50% inhibition. Low values mean greater potency, high ones weaker potency.

The values are drawn from BindingDB's records for patent US20240336562 (Hangzhou Innogate Pharma, 2024).
